Measurements from patent US20170150719A1, “FUNGICIDAL PYRAZOLES AND THEIR MIXTURES” (E I DU PONT DE NEMOURS AND COMPANY, priority 2010, published 2017).

Tests used:
Septoria nodorum = assay: Test E: Septoria glume blotch, preventive spray on wheat seedlings, visual disease rating; conditions: 100 = 100% disease control; for pest or weed control at 200 µg/mL: Parastagonospora nodorum, in Triticum aestivum, read-out: Test E rating (disease control), Septoria glume blotch; for pest or weed control at 200 µg/mL / Test E rating (disease control): 0 = no disease control relative to the controls; for Test E rating (disease control): Septoria glume blotch
[1] = tested on: Blumeria graminis f. sp. tritici; assay: Test I: wheat powdery mildew, preventive spray on wheat seedlings, visual disease rating; conditions: 100 = 100% disease control; for pest or weed control at 200 µg/mL: Blumeria graminis, in Triticum aestivum, read-out: Test I rating (disease control), wheat powdery mildew; for pest or weed control at 200 µg/mL / Test I rating (disease control): 0 = no disease control relative to the controls
Botrytis cinerea = assay: Test A: tomato Botrytis, preventive spray on tomato seedlings, visual disease rating; conditions: 100 = 100% disease control; for pest or weed control at 200 µg/mL: Botrytis cinerea, in Solanum lycopersicum, read-out: Test A rating (disease control), tomato Botrytis; for pest or weed control at 200 µg/mL / Test A rating (disease control): 0 = no disease control relative to the controls
[2] = tested on: Puccinia recondita f. sp. tritici; assay: Test H: wheat leaf rust, preventive spray on wheat seedlings, visual disease rating; conditions: 100 = 100% disease control; for pest or weed control at 200 µg/mL: read-out: Test H rating (disease control), wheat leaf rust, sprayed the day before inoculation; for pest or weed control at 200 µg/mL / Test H rating (disease control): 0 = no disease control; for Test H rating (disease control): sprayed the day before inoculation
[3] = tested on: Puccinia recondita f. sp. tritici; assay: Test G: wheat leaf rust, spray after inoculation (curative) on wheat seedlings, visual disease rating; assay type: in vivo; conditions: 100 = 100% disease control; for pest or weed control at 200 µg/mL / Test G rating (disease control): sprayed after inoculation, 0 = no disease control
Source text: (§1) A hyphen (-) indicates no test results.

Septoria tritici = assay: Test F: wheat leaf blotch, preventive spray on wheat seedlings, visual disease rating; assay type: in vivo; conditions: 100 = 100% disease control; for pest or weed control at 200 µg/mL: Zymoseptoria tritici; for pest or weed control at 200 µg/mL / Test F rating (disease control): 0 = no disease control relative to the controls
Source text: as §1

Alternaria solani = assay: Test B: tomato early blight, preventive spray on tomato seedlings, visual disease rating; conditions: for pest or weed control at 200 µg/mL: Alternaria solani, in Solanum lycopersicum, read-out: Test B rating (disease control); for Test B rating (disease control): 0 = no disease control relative to the controls
[4] = tomato early blight, 100 = 100% disease control

## Cc1nn(C)c(Nc2c(F)cc(F)cc2Cl)c1-c1c(F)cccc1F [Compound 86, N-(2-chloro-4,6-difluorophenyl)-4-(2,6-difluorophenyl)-1,3-dimethyl-1H-pyrazol-5-amine]
Septoria nodorum
  pest or weed control at 200 µg/mL: 90%
[1]
  pest or weed control at 200 µg/mL: 100%
Botrytis cinerea
  pest or weed control at 200 µg/mL: 100%
[2]
  pest or weed control at 200 µg/mL: 100%
[3]
  pest or weed control at 200 µg/mL: 0%
Septoria tritici
  pest or weed control at 200 µg/mL: 100%
Alternaria solani
  pest or weed control at 200 µg/mL: 99%

## Cc1nn(C)c(Nc2c(Cl)cc(F)cc2Cl)c1-c1c(Cl)cccc1Cl [compound 115]
Septoria nodorum
  Test E rating (disease control): 0%
[1]; wheat powdery mildew
  Test I rating (disease control): 93%
Botrytis cinerea; tomato Botrytis
  Test A rating (disease control): 99%
[2]; wheat leaf rust
  Test H rating (disease control): 99%
[3]
  Test G rating (disease control): 0%
Septoria tritici
  Test F rating (disease control): 99%
Alternaria solani; [4]
  Test B rating (disease control): 0%

## Cc1nn(C)c(Nc2ccc(F)cc2I)c1-c1ccc(F)cc1Cl [compound 181]
Septoria nodorum; Septoria glume blotch on wheat, preventive spray, rating without asterisk
  Test E rating (% disease control): 99%
[1]; wheat powdery mildew, preventive spray, rating without asterisk
  Test I rating (% disease control): 100%
Botrytis cinerea; tomato Botrytis, preventive spray, 0 = no control relative to controls, rating without asterisk
  Test A rating (% disease control): 100%
[2]; wheat leaf rust, preventive spray, rating without asterisk
  Test H rating (% disease control): 99%
[3]; spray after inoculation, rating without asterisk
  Test G rating (% disease control): 99%
Septoria tritici; preventive spray, rating without asterisk
  Test F rating (% disease control): 100%
Alternaria solani; tomato early blight, preventive spray, 100 = 100% disease control, rating without asterisk
  Test B rating (% disease control): 99%

## Cc1nn(C)c(Nc2c(Cl)cc(F)cc2Cl)c1-c1ccc(F)cc1Br [compound 98]
Septoria nodorum
  Test E rating (disease control): 0%
[1]; wheat powdery mildew
  Test I rating (disease control): 96%
Botrytis cinerea; tomato Botrytis
  Test A rating (disease control): 99%
[2]; wheat leaf rust
  Test H rating (disease control): 99%
[3]
  Test G rating (disease control): 9%
Septoria tritici
  Test F rating (disease control): 99%
Alternaria solani; [4]
  Test B rating (disease control): 0%

## COc1ccc(Nc2c(-c3ccc(F)cc3Br)c(C)nn2C)c(Cl)c1 [compound 103]
Septoria nodorum
  Test E rating (disease control): 0%
[1]; wheat powdery mildew
  Test I rating (disease control): 99%
Botrytis cinerea; tomato Botrytis
  Test A rating (disease control): 99%
[2]; wheat leaf rust
  Test H rating (disease control): 99%
[3]
  Test G rating (disease control): 63%
Septoria tritici
  Test F rating (disease control): 100%
Alternaria solani; [4]
  Test B rating (disease control): 83%

## COc1cc(F)c(-c2c(C)nn(C)c2Nc2c(F)cc(F)cc2F)c(F)c1 [Compound 7, 4-(2,6-difluoro-4-methoxyphenyl)-1,3-dimethyl-N-(2,4,6-trifluorophenyl)-1H-pyrazol-5-amine]
Septoria nodorum
  pest or weed control at 200 µg/mL: 0%
[1]
  pest or weed control at 200 µg/mL: 100%
Botrytis cinerea
  pest or weed control at 200 µg/mL: 98%
[2]
  pest or weed control at 200 µg/mL: 97%
[3]
  pest or weed control at 200 µg/mL: 9%
Septoria tritici
  pest or weed control at 200 µg/mL: 94%
Alternaria solani
  pest or weed control at 200 µg/mL: 100%

## Cc1nn(C)c(Oc2c(F)cc(C#N)cc2F)c1-c1ccccc1F [compound 91]
Septoria nodorum
  Test E rating (disease control): 94%
[1]; wheat powdery mildew
  Test I rating (disease control): 99%
Botrytis cinerea; tomato Botrytis
  Test A rating (disease control): 99%
[2]; wheat leaf rust
  Test H rating (disease control): 99%
[3]
  Test G rating (disease control): 0%
Septoria tritici
  Test F rating (disease control): 100%
Alternaria solani; [4]
  Test B rating (disease control): 99%

## Cc1nn(C)c(Nc2c(Cl)cc(F)cc2Cl)c1-c1ccc(Cl)cc1Cl [compound 132]
Septoria nodorum
  Test E rating (disease control): 0%
[1]; wheat powdery mildew
  Test I rating (disease control): 43%
Botrytis cinerea; tomato Botrytis
  Test A rating (disease control): 93%
[2]; wheat leaf rust
  Test H rating (disease control): 96%
[3]
  Test G rating (disease control): 0%
Septoria tritici
  Test F rating (disease control): 99%
Alternaria solani; [4]
  Test B rating (disease control): 0%

## CCOc1cc(F)c(-c2c(C)nn(C)c2Nc2ccc(F)cc2F)c(F)c1 [compound 39]
Septoria nodorum
  Test E rating (disease control): 98%
[1]; wheat powdery mildew
  Test I rating (disease control): 100%
Botrytis cinerea; tomato Botrytis
  Test A rating (disease control): 99%
[2]; wheat leaf rust
  Test H rating (disease control): 99%
[3]
  Test G rating (disease control): 0%
Septoria tritici
  Test F rating (disease control): 100%
Alternaria solani; [4]
  Test B rating (disease control): 99%
